Data as given in patent US8952024B2, “Herbicidal pyrimidone derivatives” (E I du Pont de Nemours and Company, priority 2009, dated 2015).

Columns and labels:
Type in all cases: in vivo
[1] = test system: cocklebur (Xanthium strumarium); experiment: Test B pre-/postemergence plant response; conditions: for Plant response rating, Cocklebur: Postemergence
Method in brief: (§1)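 Visual injury, 0–100 scale (100 = complete control), rated against controls after 13 to 15 days in greenhouse. Pre-emergence: seeds in loam/sand soil, treated at planting. Post-emergence: 1- to 4-leaf plants (2 to 18 cm) in peat/vermiculite medium. Compounds formulated in non-phytotoxic solvent with surfactant.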

[2] = test system: bermudagrass (Cynodon dactylon); experiment: Test B pre-/postemergence plant response; conditions: for Plant response rating, Bermudagrass: Postemergence
Method in brief: as §1

[3] = test system: wheat (Triticum aestivum); experiment: Test B pre-/postemergence plant response; conditions: for Plant response rating, Wheat: Postemergence
Method in brief: as §1

[4] = test system: wheat (Triticum aestivum); experiment: Test A pre-/postemergence plant response
Method in brief: (§2)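 Injury was scored visually after roughly ten days against untreated controls, 0 = no effect, 100 = complete control. Test chemicals in a surfactant-containing non-phytotoxic solvent were sprayed either onto soil preemergence or onto one- to two-leaf, 2–10 cm plants postemergence.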

[5] = test system: morningglory (Ipomoea spp.); experiment: Test A pre-/postemergence plant response
Method in brief: as §2

[6] = test system: large crabgrass (Digitaria sanguinalis); experiment: Test A pre-/postemergence plant response
Method in brief: as §2

corn (Zea mays) = experiment: Test A pre-/postemergence plant response
Method in brief: as §2

[7] = test system: pigweed (Amaranthus retroflexus); experiment: Test A pre-/postemergence plant response
Method in brief: as §2

[8] = test system: velvetleaf (Abutilon theophrasti); experiment: Test A pre-/postemergence plant response
Method in brief: as §2

[9] = test system: giant foxtail (Setaria faberii); experiment: Test A pre-/postemergence plant response
Method in brief: as §2

[10] = test system: barnyardgrass (Echinochloa crus-galli); experiment: Test A pre-/postemergence plant response
Method in brief: as §2

[11] = 125 g ai/ha, scale 0 to 100 (0 no effect, 100 complete control)
[12] = 250 g ai/ha, scale 0 to 100 (0 no effect, 100 complete control), 13 to 15 days
[13] = 62 g ai/ha, scale 0 to 100 (0 no effect, 100 complete control)
[14] = 31 g ai/ha, 0 to 100 scale (0 no effect, 100 complete control)
[15] = Postemergence, 125 g ai/ha, 0 to 100 scale where 0 is no effect and 100 is complete control
[16] = Postemergence, 500 g ai/ha, visual injury, 0 to 100 scale (0 no effect, 100 complete control), approx. ten days
[17] = Preemergence, 125 g ai/ha, 0 to 100 scale, 0 = no effect, 100 = complete control
[18] = Preemergence, 500 g ai/ha, 0 to 100 scale, 0 = no effect, 100 = complete control
[19] = 62 g ai/ha, postemergence, 0 is no effect, 100 is complete control, 13 to 15 days
[20] = Postemergence, 500 g ai/ha, 0 to 100 scale, 0 = no effect, 100 = complete control, approx. ten days
[21] = Preemergence, 500 g ai/ha, visual injury, 0 to 100 scale (0 no effect, 100 complete control), approx. ten days

CCn1c(-c2cccc(F)c2)ncc(C(=O)C2=C(O)C3CCC(C3)C2=O)c1=O (stereo not shown) [Compound 236]
Plant response rating, Cocklebur [1, 11]: 100 | Plant response rating, Cocklebur [1, 12]: 100 | Plant response rating, Cocklebur [1, 13]: 100 | Plant response rating, Bermudagrass [2, 14]: 95 | Plant response rating, Bermudagrass [2, 11]: 98 | Plant response rating, Bermudagrass [2, 13]: 98 | Plant response rating, Wheat [3, 14]: 0 | Plant response rating, Wheat [3, 12]: 60 | Plant response rating, Wheat [3, 13]: 10 | Plant response rating, Wheat [4, 15]: 0 | Wheat plant response rating [4, 16]: 40 | Plant response rating, Wheat [4, 17]: 0 | Plant response rating, Wheat [4, 18]: 30 | Plant response rating, Morningglory [5, 15]: 100 | Morningglory plant response rating [5, 16]: 100 | Plant response rating, Morningglory [5, 17]: 70 | Plant response rating, Morningglory [5, 18]: 80 | Plant response rating, Crabgrass, Large [6, 15]: 80 | Crabgrass, Large plant response rating [6, 16]: 90 | Plant response rating, Crabgrass, Large [6, 17]: 80 | Plant response rating, Crabgrass, Large [6, 18]: 100 | Plant response rating, Corn (corn (Zea mays); [15]): 20 | Corn plant response rating (corn (Zea mays); [16]): 50 | Plant response rating, Corn (corn (Zea mays); [17]): 0 | Plant response rating, Corn (corn (Zea mays); [18]): 10 | Plant response rating, Pigweed [7, 15]: 80 | Pigweed plant response rating [7, 16]: 100 | Plant response rating, Pigweed [7, 17]: 80 | Plant response rating, Pigweed [7, 18]: 90 | Plant response rating, Velvetleaf [8, 15]: 100 | Velvetleaf plant response rating [8, 16]: 100 | Plant response rating, Velvetleaf [8, 17]: 80 | Plant response rating, Velvetleaf [8, 18]: 100 | Plant response rating, Foxtail, Giant [9, 15]: 70 | Foxtail, Giant plant response rating [9, 16]: 90 | Plant response rating, Foxtail, Giant [9, 17]: 40 | Plant response rating, Foxtail, Giant [9, 18]: 70 | Plant response rating, Barnyardgrass [10, 15]: 90 | Barnyardgrass plant response rating [10, 16]: 90 | Plant response rating, Barnyardgrass [10, 17]: 50 | Plant response rating, Barnyardgrass [10, 18]: 90

CCn1c(-c2cc(F)cc(F)c2)ncc(C(=O)C2=C(O)CCCC2=O)c1=O [Compound 122]
Plant response rating, Cocklebur ([1]; 16 g ai/ha, 0 to 100 scale): 0 | Cocklebur plant response rating (0 to 100 scale) [1, 19]: 45 | Plant response rating, Cocklebur [1, 14]: 20 | Plant response rating, Cocklebur [1, 11]: 85 | Plant response rating, Bermudagrass ([2]; 16 g ai/ha, 0 to 100 scale): 65 | Bermudagrass plant response rating (0 to 100 scale) [2, 19]: 80 | Plant response rating, Bermudagrass [2, 14]: 75 | Plant response rating, Bermudagrass [2, 11]: 85 | Plant response rating, Wheat ([3]; 16 g ai/ha, 0 to 100 scale): 5 | Wheat plant response rating (0 to 100 scale) [3, 19]: 30 | Plant response rating, Wheat [3, 14]: 15 | Plant response rating, Wheat [3, 11]: 50 | Plant response rating, Wheat [4, 15]: 0 | Plant response rating, Wheat [4, 20]: 50 | Plant response rating, Wheat [4, 17]: 0 | Plant response rating, Wheat [4, 21]: 40 | Plant response rating, Morningglory [5, 15]: 90 | Plant response rating, Morningglory [5, 20]: 100 | Plant response rating, Morningglory [5, 17]: 40 | Plant response rating, Morningglory [5, 21]: 80 | Plant response rating, Crabgrass, Large [6, 15]: 70 | Plant response rating, Crabgrass, Large [6, 20]: 90 | Plant response rating, Crabgrass, Large [6, 17]: 90 | Plant response rating, Crabgrass, Large [6, 21]: 100 | Plant response rating, Corn (corn (Zea mays); [15]): 0 | Plant response rating, Corn (corn (Zea mays); [20]): 30 | Plant response rating, Corn (corn (Zea mays); [17]): 0 | Plant response rating, Corn (corn (Zea mays); [21]): 0 | Plant response rating, Pigweed [7, 15]: 100 | Plant response rating, Pigweed [7, 20]: 100 | Plant response rating, Pigweed [7, 17]: 100 | Plant response rating, Pigweed [7, 21]: 100 | Plant response rating, Velvetleaf [8, 15]: 100 | Plant response rating, Velvetleaf [8, 20]: 100 | Plant response rating, Velvetleaf [8, 17]: 100 | Plant response rating, Velvetleaf [8, 21]: 100 | Plant response rating, Foxtail, Giant [9, 15]: 70 | Plant response rating, Foxtail, Giant [9, 20]: 80 | Plant response rating, Foxtail, Giant [9, 17]: 30 | Plant response rating, Foxtail, Giant [9, 21]: 100 | Plant response rating, Barnyardgrass [10, 15]: 60 | Plant response rating, Barnyardgrass [10, 20]: 80 | Plant response rating, Barnyardgrass [10, 17]: 30 | Plant response rating, Barnyardgrass [10, 21]: 100
